Numbers after ± are expanded uncertainties.
Details: 101.33 kPa, Liquid, Vibrating tube method

**Q.** With `NCCO` [2-aminoethan-1-ol] as the molecule, how does the mass density (297.15 K) read?
**A.** 1012.94 ± 0.13 kg/m3

**Q.** Which mass density (298.15 K) does the source give for `CO` [methanol] here?
**A.** 786.58 ± 0.13 kg/m3
